{
  "source": "patent US11253477B2",
  "about": "“Compositions based on propolis nanocapsules which can be used as carriers for substances of interest, methods for producing same and use thereof” (EMPRESA BRASILEIRA DE PESQUISA AGROPECUÁRIA—EMBRAPA, priority 2010, dated 2022)",
  "test_system": "Staphyloccoccus aureus, strain ATCC23273",
  "assay": "Colony forming units in agar BHI of samples from the bactericidal/bacteriostatic test",
  "type": "cell-based, Staphylococcus aureus",
  "set-up": "key to Colony forming unites (CFU) in agar BHI: i = uncountable",
  "experimental": "The bactericidal/bacteriostatic effect of the propolis nanoparticles, of nanoencapsulated arithromycin in propolis extract and of pure arithromycin was determined in vitro against samples of Staphylocossus aureus (strain ATCC23273) cultivated in Mueller Hinton culture broth, according to Table 3. Since azithromycyn is a bacteriostatic antibiotic, the samples of the different dilutions were used to determine the core of colony forming units (UFC) in agar BHI (brain-heart-infusion), and thereby determine the bactericidal/bacteriostatic effect shown in Table 4.",
  "data": [
    {"smiles": "CC[C@H]1OC(=O)[C@H](C)[C@@H](O[C@H]2C[C@@](C)(OC)[C@@H](O)[C@H](C)O2)[C@H](C)[C@@H](O[C@@H]2O[C@H](C)C[C@H](N(C)C)[C@H]2O)[C@](C)(O)C[C@@H](C)CN(C)[C@H](C)[C@@H](O)[C@]1(C)O", "note": "[A, azithromycin]", "values": [
      {"measurement": "concentration with bactericidal effect on Staphylococcus aureus", "setting": "from broth test and CFU count", "result": "≥ 128", "unit": "µg/mL"},
      {"measurement": "Colony forming unites (CFU) in agar BHI", "setting": "origin tube 4", "result": "i"},
      {"measurement": "Colony forming unites (CFU) in agar BHI", "setting": "origin tube 8", "result": 30, "unit": "UFC"},
      {"measurement": "Colony forming unites (CFU) in agar BHI", "setting": "origin tube 16", "result": 3, "unit": "UFC"},
      {"measurement": "Colony forming unites (CFU) in agar BHI", "setting": "origin tube 32", "result": 1, "unit": "UFC"},
      {"measurement": "Colony forming unites (CFU) in agar BHI", "setting": "origin tube 64", "result": 1, "unit": "UFC"},
      {"measurement": "Colony forming unites (CFU) in agar BHI", "setting": "origin tube 128", "result": 0, "unit": "UFC"},
      {"measurement": "Colony forming unites (CFU) in agar BHI", "setting": "origin tube 512", "result": 0, "unit": "UFC"},
      {"measurement": "Colony forming unites (CFU) in agar BHI", "setting": "origin tube 526", "result": 0, "unit": "UFC"}
    ]}
  ]
}
